Laboratory results from patent US10383943B2, “Compositions and related methods for the treatment of cancer” (South Dakota Board of Regents, priority 2016, dated 2019).

Legend:
[1] = tested on: White blood cell (WBC) counts; assay: White blood cell (WBC) toxicity in mice; type: in vivo; conditions: FIG. 10
Excerpt: White blood cell (WBC) counts are important for immune mediated tumor clearance. In order to assess the level of WBC toxicity of induced by A-Platin relative the WBC lose was quantified in mice following treatment with drug along and drug administered in conjunction with radiation.

[2] = tested on: SCC1 cells (HPV-human HNSCC); assay: Colony forming assay (crystal violet, A540) in SCC1 cells; type: cell-based; conditions: 10-500 μM, p<0.03 compared to control, FIG. 7
Procedure: (§1) In order to further assess the effect of A-platin on cancer cell growth, colony forming assays using Head and Neck Squamous Cell Carcinoma (HNSCC) were preformed. Briefly, 10,000 cells were plated in triplicate in 6-well plates per treatment condition. The next day cells were treated with the cisplatin, A-platin, or G-platin at the variable doses. On day 6 from plating, cells were fixed in 70% ethanol and stained with 0.5% crystal violet in 10% ethanol. After sufficient washing and drying, cells were destained in 25% glacial acetic acid, and absorbance of 100 uL of each destain solution was read on a SpectraMax plate reader at 540 nm (A540). A540 is an indirect measure of the amount of crystal violet per well, and thus the number of cells per well.

[3] = tested on: Primary human tonsil epithelial cells (HTE); assay: Colony forming assay (crystal violet, A540) in primary HTE cells; type: cell-based; conditions: FIG. 7
[4] = tested on: SCC47 cells (HPV+ human HNSCC); assay: Colony forming assay (crystal violet, A540) in SCC47 cells; type: cell-based; conditions: FIG. 7
Procedure: as §1

Structure (SMILES)	white blood cell loss ([1]; drug treatment alone groups)	white blood cell loss ([1]; drug+radiation groups)	cell number relative to control (A540) [2]	cell number (A540) ([3]; 10-500 μM, p<0.04 compared to control)	cell number relative to control (A540) ([4]; 50-500 μM, p<0.0007 compared to control)	cell number (A540) ([3]; 1-500 μM, p<0.007 compared to control)	cell number relative to control (A540) ([4]; 10-500 μM, p<0.008 compared to control)
N[C@@H](Cc1ccc(N=C(O)CCC(=O)[O][Pt]([NH2])([NH2])([OH])([Cl])[Cl])cc1)C(=O)O [AT-Platin]	less white blood cell loss	less white blood cell loss	–	–	–	–	–
N.N.[Cl][Pt][Cl] [Cisplatin, cis-diamminedichloroplatinum(II), reference compound]	–	–	reduced cell number relative to control	reduced cell number	reduced cell number relative to control	–	–
[NH2][Pt]([NH2])([OH])([Cl])([Cl])[O]C(=O)CCC(O)=N[C@@H]1C(O)[C@H](O)C(CO)O[C@@H]1O (some centres unmarked) [G-platin]	–	–	reduced cell number relative to control	–	–	reduced cell number	reduced cell number relative to control
